Test results taken from patent US9346809B2 (LEO PHARMA A/S, priority 2009, dated 2016).
Like-named read-outs stand apart in the source and are kept apart here.

Key:
Format in all cases: biochemical
[1] = biological target: T1, JAK1 (aa 850-1154, catalytic domain, GST-tag) (Homo sapiens, UniProt P23458); assay: JAK kinase assay (HTRF, phosphorylation of TK substrate-biotin), JAK1; conditions: ATP at Km (7 μM)
T1 construct: JAK1 (aa 850-1154) and TYK2 (aa 871-1187) are expressed with an N-terminally fused GST-tag; GST (N); purchased Carna Biosciences, Inc; host or cells: baculovirus expression system
T1 sequence (P23458 850-1154): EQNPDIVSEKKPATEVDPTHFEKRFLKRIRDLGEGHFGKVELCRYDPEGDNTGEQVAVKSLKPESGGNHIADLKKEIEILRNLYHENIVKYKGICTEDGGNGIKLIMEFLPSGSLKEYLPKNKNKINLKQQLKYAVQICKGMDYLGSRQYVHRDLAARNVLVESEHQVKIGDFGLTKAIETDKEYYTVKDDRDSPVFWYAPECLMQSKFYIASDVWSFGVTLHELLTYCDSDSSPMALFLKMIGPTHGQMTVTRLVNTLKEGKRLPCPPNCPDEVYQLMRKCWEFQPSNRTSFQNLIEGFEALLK
In short: (§1)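 Per reaction, 5 ng JAK1, 0.1 ng JAK2, 0.3 ng JAK3 or 0.8 ng TYK2 (baculovirus-expressed catalytic domains) acted on 1 μM TK substrate-biotin at Km ATP for 20-30 min, RT. Phosphorylation measured by HTRF.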

[2] = biological target: T2, TYK2 (aa 871-1187, catalytic domain, GST-tag) (Homo sapiens, UniProt P29597); assay: JAK kinase assay (HTRF, phosphorylation of TK substrate-biotin), TYK2; conditions: ATP at Km (13 μM)
T2 construct: JAK1 (aa 850-1154) and TYK2 (aa 871-1187) are expressed with an N-terminally fused GST-tag; GST (N); purchased Carna Biosciences, Inc; host or cells: baculovirus expression system
T2 sequence (P29597 871-1187): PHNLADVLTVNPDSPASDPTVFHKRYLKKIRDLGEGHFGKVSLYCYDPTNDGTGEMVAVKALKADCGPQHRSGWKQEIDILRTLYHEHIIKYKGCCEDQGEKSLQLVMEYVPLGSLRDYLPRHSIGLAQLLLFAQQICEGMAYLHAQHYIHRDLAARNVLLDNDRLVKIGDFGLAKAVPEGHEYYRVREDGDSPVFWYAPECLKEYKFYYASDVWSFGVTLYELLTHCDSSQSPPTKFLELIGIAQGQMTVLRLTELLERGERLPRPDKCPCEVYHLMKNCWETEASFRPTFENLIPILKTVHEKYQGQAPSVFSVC
In short: as §1

[3] = biological target: T3, JAK2 (catalytic domain, His-tag) (Homo sapiens, UniProt O60674); assay: JAK kinase assay (HTRF, phosphorylation of TK substrate-biotin), JAK2; conditions: ATP at Km (4 μM)
T3 construct: All four purified enzymes contain only the catalytic domain; His (N); purchased Carna Biosciences, Inc; host or cells: baculovirus expression system
T3 sequence (O60674 849-1124 limits assumed): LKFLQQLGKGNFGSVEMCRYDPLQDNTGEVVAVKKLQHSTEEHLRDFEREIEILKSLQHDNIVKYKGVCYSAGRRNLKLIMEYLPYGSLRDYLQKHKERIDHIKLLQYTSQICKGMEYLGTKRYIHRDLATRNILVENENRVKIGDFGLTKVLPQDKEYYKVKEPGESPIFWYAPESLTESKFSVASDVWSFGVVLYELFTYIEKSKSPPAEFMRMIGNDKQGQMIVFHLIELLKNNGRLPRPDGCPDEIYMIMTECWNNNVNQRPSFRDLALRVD
In short: as §1

[4] = biological target: T4, JAK3 (catalytic domain, His-tag) (Homo sapiens, UniProt P52333); assay: JAK kinase assay (HTRF, phosphorylation of TK substrate-biotin), JAK3; conditions: ATP at Km (2 μM)
T4 construct: All four purified enzymes contain only the catalytic domain; His (N); purchased Carna Biosciences, Inc; host or cells: baculovirus expression system
T4 sequence (P52333 822-1111 limits assumed): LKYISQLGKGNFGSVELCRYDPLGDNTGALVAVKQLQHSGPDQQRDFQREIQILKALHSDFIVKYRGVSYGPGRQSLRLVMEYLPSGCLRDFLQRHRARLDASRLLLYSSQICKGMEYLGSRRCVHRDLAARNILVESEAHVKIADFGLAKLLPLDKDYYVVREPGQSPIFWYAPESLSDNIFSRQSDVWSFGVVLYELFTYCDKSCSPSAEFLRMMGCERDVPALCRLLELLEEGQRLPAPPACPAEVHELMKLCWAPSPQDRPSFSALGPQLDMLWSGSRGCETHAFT
In short: as §1

[5] = read-out: JAK1 kinase inhibitory activity (EC50 indicator)
[6] = read-out: TYK2 kinase inhibitory activity (EC50 indicator)
[7] = read-out: JAK2 kinase inhibitory activity (EC50 indicator)
[8] = read-out: JAK3 kinase inhibitory activity (EC50 indicator)
[9] = HTRF assay, read-out: JAK1 kinase inhibitory activity (EC50 indicator)
[10] = HTRF assay, read-out: TYK2 kinase inhibitory activity (EC50 indicator)
[11] = HTRF assay, read-out: JAK2 kinase inhibitory activity (EC50 indicator)
[12] = HTRF assay, read-out: JAK3 kinase inhibitory activity (EC50 indicator)
[13] = HTRF assay, read-out: JAK1 kinase inhibitory activity (EC50)
[14] = HTRF assay, read-out: TYK2 kinase inhibitory activity (EC50)
[15] = HTRF assay, read-out: JAK2 kinase inhibitory activity (EC50)
[16] = HTRF assay, read-out: JAK3 kinase inhibitory activity (EC50)

Compound | EC50 [1, 5] [µM] | EC50 [2, 6] [µM] | EC50 [3, 7] [µM] | EC50 [4, 8] [µM] | EC50 [1, 9] [µM] | EC50 [2, 10] [µM] | EC50 [3, 11] [µM] | EC50 [4, 12] [µM] | further results
O=C([C@@H]1CCCc2ccccc21)N1C2CCC1CN(c1ncnc3[nH]ccc13)C2 [Example 137, [3-(7H-Pyrrolo[2,3-d]pyrimidin-4-yl)-3,8-diaza-bicyclo[3.2.1]oct-8-yl]-(1,2,3,4-tetrahydro-naphthalen-1-yl)-methanone] | > 0.5 | > 0.5 | 0.1 to 0.5 | > 0.5 |  |  |  |  | 
O=C(c1ccc(-c2ccccc2)s1)N1CCN(c2ncnc3[nH]ccc23)CC12CC2 [Example 215, (5-Phenyl-thiophen-2-yl)-[7-(7H-pyrrolo[2,3-d]pyrimidin-4-yl)-4,7-diaza-spiro[2.5]oct-4-yl]-methanone] |  |  |  |  | < 0.1 | 0.1 to 0.5 | < 0.1 | 0.1 to 0.5 | 
O=C(c1ccc2sccc2c1)N1CCN(c2ncnc3[nH]ccc23)CC12CC2 [Example 106, Benzo[b]thiophen-5-yl-[7-(7H-pyrrolo[2,3-d]pyrimidin-4-yl)-4,7-diaza-spiro[2.5]oct-4-yl]-methanone] | < 0.1 | 0.1 to 0.5 | < 0.1 | 0.1 to 0.5 |  |  |  |  | 
O=C(c1ccccc1)N1[C@@H]2CC[C@H]1CN(c1ncnc3[nH]ccc13)C2 [Example 33, Phenyl-[3-(7H-pyrrolo[2,3-d]pyrimidin-4-yl)-3,8-diazabicyclo[3.2.1]oct-8-yl]methanone] | < 0.1 | 0.1 to 0.5 | < 0.1 | 0.1 to 0.5 |  |  |  |  | 
N#CC1(C(=O)N2CCN(c3ncnc4[nH]ccc34)CC23CC3)CCCC1 [Example 114, 1-[7-(7H-Pyrrolo[2,3-d]pyrimidin-4-yl)-4,7-diaza-spiro[2.5]octane-4-carbonyl]-cyclopentanecarbonitrile] | 0.1 to 0.5 | > 0.5 | < 0.1 | 0.1 to 0.5 |  |  |  |  | 
N#Cc1ccc(CC(=S)N2CCN(c3ncnc4[nH]ccc34)CC23CC3)cc1 [Example 441, 4-{2-[7-(7H-Pyrrolo[2,3-d]pyrimidin-4-yl)-4,7-diaza-spiro[2.5]oct-4-yl]-2-thioxo-ethyl}-benzonitrile] |  |  |  |  |  |  |  |  | EC50 [1, 13]: < 0.1 µM; EC50 [2, 14]: < 0.1 µM; EC50 [3, 15]: < 0.1 µM; EC50 [4, 16]: < 0.1 µM
O=C(c1ccc(C(F)(F)F)cc1)N1[C@@H]2CC[C@H]1CN(c1ncnc3[nH]ccc13)C2 [Example 1, [3-(7H-Pyrrolo[2,3-d]pyrimidin-4-yl)-3,8-diazabicyclo[3.2.1]oct-8-yl]-(4-trifluoromethylphenyl)methanone] | < 0.1 | > 0.5 | 0.1 to 0.5 | > 0.5 |  |  |  |  | 
CCS(=O)(=O)Nc1ccc(C(=O)N2CCN(c3ncnc4[nH]ccc34)CC23CC3)cc1 [Example 210, Ethanesulfonic acid {4-[7-(7H-pyrrolo[2,3-d]pyrimidin-4-yl)-4,7-diaza-spiro[2.5]octane-4-carbonyl]-phenyl}-amide] |  |  |  |  | < 0.1 | < 0.1 | < 0.1 | < 0.1 | 
O=C(c1ccncc1)N1CCN(c2ncnc3[nH]ccc23)CC12CC2 [Example 3, Pyridin-4-yl-[7-(7H-pyrrolo[2,3-d]pyrimidin-4-yl)-4,7-diazaspiro[2.5]oct-4-yl]-methanone] | < 0.1 | 0.1 to 0.5 | < 0.1 | 0.1 to 0.5 |  |  |  |  | 
S=C(NCc1ccccc1)N1CCN(c2ncnc3[nH]ccc23)CC12CC2 [Example 438, 7-(7H-Pyrrolo[2,3-d]pyrimidin-4-yl)-4,7-diaza-spiro[2.5]octane-4-carbothioic acid benzylamide] |  |  |  |  |  |  |  |  | EC50 [1, 13]: < 0.1 µM; EC50 [2, 14]: 0.1 to 0.5 µM; EC50 [3, 15]: < 0.1 µM; EC50 [4, 16]: 0.1 to 0.5 µM
N#Cc1ccc(C(=O)N2CCN(c3nc(N)nc4[nH]ccc34)CC23CC3)cc1 [Example 303, 4-[7-(2-Amino-7H-pyrrolo[2,3-d]pyrimidin-4-yl)-4,7-diaza-spiro[2.5]octane-4-carbonyl]-benzonitrile] |  |  |  |  | < 0.1 | > 0.5 | < 0.1 | 0.1 to 0.5 | 
CC1CN(C(=O)CCC#N)C2(CC2)CN1c1ncnc2[nH]ccc12 (stereo not shown) [Example 150, 4-[6-Methyl-7-(7H-pyrrolo[2,3-d]pyrimidin-4-yl)-4,7-diaza-spiro[2.5]oct-4-yl]-4-oxo-butyronitrile] | < 0.1 | > 0.5 | < 0.1 | < 0.1 |  |  |  |  | 
O=C(CC(F)(F)F)N1CCN(c2ncnc3[nH]ccc23)CC12CC2 [Example 24, 3,3,3-Trifluoro-1-[7-(7H-pyrrolo[2,3-d]pyrimidin-4-yl)-4,7-diazaspiro[2.5]oct-4-yl]propan-1-one] | < 0.1 | > 0.5 | < 0.1 | < 0.1 |  |  |  |  | 
Cc1c[nH]c2ncnc(N3CCN(C(=O)c4ccc(C#N)cc4)C4(CC4)C3)c12 [Example 118, 4-[7-(5-Methyl-7H-pyrrolo[2,3-d]pyrimidin-4-yl)-4,7-diaza-spiro[2.5]octane-4-carbonyl]-benzonitrile] | > 0.5 | > 0.5 | > 0.5 | > 0.5 |  |  |  |  | 
CC(C)(C)OC(=O)N1[C@@H]2CC[C@H]1CN(c1ncnc3[nH]ccc13)C2 [Example 9, 3-(7H-Pyrrolo[2,3-d]pyrimidin-4-yl)-3,8-diaza-bicyclo[3.2.1]octane-8-carboxylic acid tert-butyl ester] | 0.1 to 0.5 | > 0.5 | < 0.1 | 0.1 to 0.5 |  |  |  |  | 

Second part, led by results:

EC50 [1, 5] [µM] | EC50 [2, 6] [µM] | EC50 [3, 7] [µM] | EC50 [4, 8] [µM] | EC50 [1, 9] [µM] | EC50 [2, 10] [µM] | EC50 [3, 11] [µM] | EC50 [4, 12] [µM] | Compound | further results
 |  |  |  | < 0.1 | 0.1 to 0.5 | < 0.1 | < 0.1 | O=C(c1cc2cccc(F)c2[nH]1)N1CCN(c2ncnc3[nH]ccc23)CC12CC2 [Example 362, (7-Fluoro-1H-indol-2-yl)-[7-(7H-pyrrolo[2,3-d]pyrimidin-4-yl)-4,7-diaza-spiro[2.5]oct-4-yl]-methanone] | 
 |  |  |  | > 0.5 | > 0.5 | > 0.5 | 0.1 to 0.5 | Cc1c[nH]c2ncnc(N3CCN(C(=O)Cc4ccc(CC#N)cc4)C4(CC4)C3)c12 [Example 328, (4-{2-[7-(5-Methyl-7H-pyrrolo[2,3-d]pyrimidin-4-yl)-4,7-diaza-spiro[2.5]oct-4-yl]-2-oxo-ethyl}-phenyl)-acetonitrile] | 
 |  |  |  | < 0.1 | > 0.5 | < 0.1 | < 0.1 | O=C(c1cc2ccccc2[nH]1)N1[C@@H]2CC[C@H]1CN(c1ncnc3[nH]ccc13)C2 [Example 348, (1H-Indol-2-yl)-[3-(7H-pyrrolo[2,3-d]pyrimidin-4-yl)-3,8-diaza-bicyclo[3.2.1]oct-8-yl]-methanone] | 
 |  |  |  | < 0.1 | 0.1 to 0.5 | < 0.1 | < 0.1 | N#Cc1cccc(C(=O)N2CCN(c3nc(N)nc4[nH]ccc34)CC23CC3)c1 [Example 304, 3-[7-(2-Amino-7H-pyrrolo[2,3-d]pyrimidin-4-yl)-4,7-diaza-spiro[2.5]octane-4-carbonyl]-benzonitrile] | 
 |  |  |  | < 0.1 | 0.1 to 0.5 | < 0.1 | 0.1 to 0.5 | CS(=O)(=O)c1cccc(C(=O)N2CCN(c3ncnc4[nH]ccc34)CC23CC3)c1 [Example 367, (3-Methanesulfonyl-phenyl)-[7-(7H-pyrrolo[2,3-d]pyrimidin-4-yl)-4,7-diaza-spiro[2.5]oct-4-yl]-methanone] | 
 |  |  |  | 0.1 to 0.5 | > 0.5 | < 0.1 | 0.1 to 0.5 | O=C(C1CCc2ccccc21)N1CCN(c2ncnc3[nH]ccc23)CC12CC2 (stereo not shown) [Example 413, Indan-1-yl-[7-(7H-pyrrolo[2,3-d]pyrimidin-4-yl)-4,7-diaza-spiro[2.5]oct-4-yl]-methanone] | 
 |  |  |  | > 0.5 | > 0.5 | 0.1 to 0.5 | 0.1 to 0.5 | N#CCc1ccc(CC(=O)N2CCN(c3ncnc4[nH]cc(Cl)c34)CC23CC3)cc1 [Example 319, (4-{2-[7-(5-Chloro-7H-pyrrolo[2,3-d]pyrimidin-4-yl)-4,7-diaza-spiro[2.5]oct-4-yl]-2-oxo-ethyl}-phenyl)-acetonitrile] | 
